Values of other authors, collected in PMC4060611 (Inorganic Chemistry, 2014).
Counter-ions that a name gives are not always drawn. Like-named read-outs stand apart in the source and are kept apart here. Each block holds one compound with its values, some of them ahead of it.

Assays:
[1] = not given; remark: listed apart in the source
[2] = 0 to 500 μM, 72 h incubation

quantum yield (in PBS): 4%
Compound: CCN1C(=CC=CC2=[N+](CCCCCC(=O)O)c3ccc(S(=O)(=O)O)cc3C2(C)C)C(C)(C)c2cc(S(=O)(=O)[O-])ccc21 [Cy3]

quantum yield (in PBS): 30%
Compound: CCN1C(=CC=CC=CC2=[N+](CCCCCC(=O)O)c3ccc(S(=O)(=O)O)cc3C2(C)C)C(C)(C)c2cc(S(=O)(=O)[O-])ccc21 [Cy5]

quantum yield Φr (in 0.1 M sulfuric acid): 0.577
Compound: C=C[C@H]1C[N@@]2CC[C@H]1C[C@H]2[C@H](O)c1ccnc2ccc(OC)cc12 [quinine sulfate]

quantum yield (in water): 30%
Compound: Texas Red

Second part, the compound before the results:

Compound: NC(=O)CN1CCN(CC(N)=O)CCN(CC(N)=O)CCN(CC(N)=O)CC1.[Eu+3] [[Eu-DOTAm]^3+]
cell association relative to [Eu-DOTA]− [1]: 5 times

Compound: europium compound of 1,4,7,10-tetraazacyclododecane-1,4,7,10-tetraacetic acid [[Eu-DOTA]^−]
effect on cell viability [2]: negligible effect
cellular accumulation [1]: negligible
